1 compound from US9757334B2, “Surfactant-stripped micelle compositions with high cargo to surfactant ratio” (The Research Foundation for The State University of New York, priority 2014, dated 2017) can be followed below.

SMILES strings stand for the structures.

The series in a line: Absorbance and peak shift of concentrated solutions. The format is physicochemical. As to conditions: 1000 OD/mL in 10 μm path length versus 1000 fold dilution. The protocol: Characterization of Nanonap Physical and Optical Properties: Size and zeta potential measurement were carried out using dynamic light scattering with a Nano ZS90 Zetasizer (Malvern Instruments). Transmission electron microscopy was performed using a JEM-2010 electron microscope to determine the morphology of an aqueous dispersion of nanonaps negatively stained with 1% uranyl acetate. Absorbance was measured by with a Lambda 35 UV/VIS spectrophotometer (Perkin Elmer) at room temperature using cuvettes with 1 cm path lengths, except for the high-concentrated spectral shifting analysis which used 10 μm path-length cuvettes.
1 Pc and 3 Nc dyes were identified that gave rise to nanonaps with peaks at 600, 707, 793 and 863 nm (FIG. 25a, b). The nanonaps generated absorption spanning the NIR spectrum while maintaining reasonably narrow full-width half-maxima (50-100 nm). Since PA imaging can resolve multiple absorption wavelengths, multi-wavelength classes of nanoparticles are desirable. The PA spectral response of nanonaps aligned with their absorption spectra (FIG. 35). The nanoparticles could be concentrated into fully soluble solutions with absorptions of greater than 1000. […] This was assessed by measuring absorption of a concentrated solution (1000 optical densities (OD)/mL) in a 10 μm path length, and then measuring a 1000 fold dilution of the same solution in a 1 cm path length. […]

Consider `CC1(C)C(/C=C/C=C/C=C/C=C2\N(CCCCS(=O)(=O)O)c3ccc4ccccc4c3C2(C)C)=[N+](CCCCS(=O)(=O)[O-])c2ccc3ccccc3c21` [indocyanine green], for which the “absorption peak shift upon concentration” value was “large absorption shifts”.
